This passage reports IC50 results from patent US20240307362A1 (priority 2019, published 2024).

Several values for one entry are separate records, joined by “and”; a condition that tells them apart may be missing. Equal values may be shown once. Read-outs that look alike come from different tables or passages of the source.

One assay deals with Ba/F3-EGFR-insSVD. The assay can be described thus: Ba/F3 cell survival assay, EGFR-insSVD. Type of assay: cell-based. On the procedure: (§1) 293T cells from ATCC were transfected with pBABEpuro expression constructs for WT EGFR or EGFR-insSVD and pCL-Eco packaging vector using Fugene-6 transfection reagent from Promega. Plates were incubated at 37° C. for 48 h. Retrovirus was harvested by filtering the media supernatant through a 0.45 μm filter.
(§2) Ba/F3 cells purchased from DSMZ were grown in RPMI+10% FBS+10 ng/mL IL-3 and infected with filtered retroviral supernatant at a 1:2 dilution. Polybrene was added to a concentration of 8 μg/mL, plates were spun for 90 min, and incubated overnight at 37° C. 2 μg/mL puromycin was added to the infected cells 24 h after infection and cells were continually grown in the presence of puromycin and 10 ng/mL IL-3. Following stably expressing Ba/F3 cell lines were generated: Ba/F3-EGFR-WT, Ba/F3-EGFR-insSVD, (Ba/F3-vector-control).
For cell survival assays, Ba/F3 cells were grown to a density of 1-2 million cells per mL, spun down and resuspended in media without IL-3, and replated at a concentration 200,000-500,000 cells per mL. The cells ectopically expressing WT EGFR or EGFR-insSVD were plated with 10 ng/mL Millipore Culture grade EGF. The cells ectopically expressing pBABEpuro empty vector were plated with 10 ng/mL IL-3.
2 days later, cells were plated in 50 μL in a 384 well plate at a concentration of 4000 cells per well for cells assayed in the absence of IL-3 and 2000 cells per well for cells assayed in the presence of IL-3. 100 nL of compound was added to each well using a 100 nL pin head, and plates were incubated at 37° C. for 48 h.
Cell viability was measured by adding 20 μL of Cell Titer-Glo Luminescent Cell Viability Reagent diluted 1:3 in PBS. Plates were sealed with Perkin Elmer Top-Seal, inverted several times to mix, and immediately centrifuged at 1000 rpm for 2 min. Plates were incubated in low light conditions for 8-10 min and luminescence was measured.

For a further assay, the system named is Ba/F3-EGFR-WT. The assay can be described thus: Ba/F3 cell survival assay, WT EGFR. Format: cell-based. As to the method: as §1, §2
The cells ectopically expressing WT EGFR or EGFR-insSVD were plated with 10 ng/mL Millipore Culture grade EGF. The cells ectopically expressing pBABEpuro empty vector were plated with 10 ng/mL IL-3.
100 nL of compound was added to each well using a 100 nL pin head, and plates were incubated at 37° C. for 48 h.
Cell viability was measured by adding 20 μL of Cell Titer-Glo Luminescent Cell Viability Reagent diluted 1:3 in PBS. Plates were sealed with Perkin Elmer Top-Seal, inverted several times to mix, and immediately centrifuged at 1000 rpm for 2 min.

The target of another assay is human Bub1 (Homo sapiens (Human), UniProt O43683). The assay can be described thus: Bub1 high ATP kinase assay (TR-FRET). Type of assay: biochemical. From the text:
Bub1-inhibitory activity of compounds of the present invention at a high ATP concentration was quantified employing the Bub1 TR-FRET high ATP kinase assay as described in the following paragraphs.
N-terminally His6-tagged recombinant catalytic domain of human Bub1 (amino acids 704-1085), expressed in insect cells (Hi5) and purified by Ni-NTA affinity chromatography and subsequent size exclusion chromatography, was used as enzyme.
Background: In TR-FRET formats the signal depends on donor and acceptor labels being close together.

Setting [1] is: Mus musculus, BaF3, 48 h, read-out: BA/F3 (insSVD) IC50, cell viability, Cell Titer-Glo, 48 h, with 10 ng/mL EGF, without IL-3.
[2] abbreviates: Mus musculus, BaF3, 48 h, read-out: BA/F3 (wild type) IC50, cell viability, Cell Titer-Glo, 48 h, with 10 ng/mL EGF, without IL-3.
Setting [3] is: read-out: Bub1 high ATP (2 mM) IC50, 2 mM ATP.
Setting [4] is: read-out: BA/F3 (insSVD) IC50, cell viability, Cell Titer-Glo, 48 h, with 10 ng/mL EGF, without IL-3.
Setting [5] is: read-out: BA/F3 (wild type) IC50, cell viability, Cell Titer-Glo, 48 h, with 10 ng/mL EGF, without IL-3.
Setting [6] is: Bub1 high ATP (2 mM) IC50, 2 mM ATP.

Sequence of human Bub1 (O43683 704-1085): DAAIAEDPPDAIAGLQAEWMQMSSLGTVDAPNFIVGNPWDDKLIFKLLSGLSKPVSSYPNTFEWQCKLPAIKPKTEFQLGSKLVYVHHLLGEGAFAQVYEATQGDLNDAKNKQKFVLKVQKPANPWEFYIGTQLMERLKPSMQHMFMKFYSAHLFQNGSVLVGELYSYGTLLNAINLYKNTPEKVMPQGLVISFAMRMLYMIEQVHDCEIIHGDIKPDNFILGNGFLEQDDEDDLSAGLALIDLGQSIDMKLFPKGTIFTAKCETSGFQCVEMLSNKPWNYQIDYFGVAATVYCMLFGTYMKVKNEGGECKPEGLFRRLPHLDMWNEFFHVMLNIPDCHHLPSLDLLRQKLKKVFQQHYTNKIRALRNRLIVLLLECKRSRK

With `CC1(COc2cnccc2-c2[nH]c3c(c2Nc2cccc(Cl)c2OC(F)F)C(=O)NCC3)CCO1` (racemic) [Example 74, 3-[3-chloro-2-(difluoromethoxy)anilino]-2-(3-{[2-methyloxetan-2-yl]methoxy}pyridin-4-yl)-1,5,6,7-tetrahydro-4H-pyrrolo[3,2-c]pyridin-4-one], the values for the IC50 in the assay on Ba/F3-EGFR-insSVD (setting [1]), with Ba/F3-EGFR-WT (setting [2]) and at human Bub1 (setting [3]) were 134 nM, 1250 nM and > 20000 nM, respectively.
In the case of `CC1(COc2cnccc2-c2[nH]c3c(c2Nc2cccc(Cl)c2OC(F)F)C(=O)NCC3)CCO1` (single isomer, unassigned) [Example 76, 3-[3-chloro-2-(difluoromethoxy)anilino]-2-(3-{[2-methyloxetan-2-yl]methoxy}pyridin-4-yl)-1,5,6,7-tetrahydro-4H-pyrrolo[3,2-c]pyridin-4-one], the IC50 with Ba/F3-EGFR-insSVD (setting [4]) was 291 nM; in the assay on Ba/F3-EGFR-WT (setting [5]), 1880 nM; on human Bub1 (setting [3]), > 20000 nM.
For `COc1c(F)cccc1Nc1c(-c2ccncc2OC[C@@H]2CCO2)[nH]c2c1C(=O)NCC2` [Example 5, 3-(3-fluoro-2-methoxyanilino)-2-(3-{[(2S)-oxetan-2-yl]methoxy}pyridin-4-yl)-1,5,6,7-tetrahydro-4H-pyrrolo[3,2-c]pyridin-4-one], the IC50 in the assay on Ba/F3-EGFR-insSVD (setting [1]) was 22.4 nM; in the assay with Ba/F3-EGFR-WT (setting [2]), 578 nM; at human Bub1 (setting [3]), > 20000 nM.
In the same order, the values of `COc1c(Cl)cccc1Nc1c(-c2ccncc2OCCC2CCO2)[nH]c2c1C(=O)NCC2` (single isomer, unassigned; (+)) [Example 25, (+)-3-(3-chloro-2-methoxyanilino)-2-{3-[2-(oxetan-2-yl)ethoxy]pyridin-4-yl}-1,5,6,7-tetrahydro-4H-pyrrolo[3,2-c]pyridin-4-one] are 4.21 nM, 121 nM and 1080 nM.
`Cc1c(Cl)cccc1Nc1c(-c2ccncc2OC[C@H]2CCO2)[nH]c2c1C(=O)NCC2` [Example 9, 3-(3-chloro-2-methylanilino)-2-(3-{[(2R)-oxetan-2-yl]methoxy}pyridin-4-yl)-1,5,6,7-tetrahydro-4H-pyrrolo[3,2-c]pyridin-4-one]: the IC50 in the assay with Ba/F3-EGFR-insSVD (setting [1]) is 269 nM; in the assay with Ba/F3-EGFR-WT (setting [2]) it was 1200 nM; at human Bub1 (setting [3]), 1570 nM.
In the same order, the values of `COc1c(F)cccc1Nc1c(-c2ccncc2OCCC2CCO2)[nH]c2c1C(=O)NCC2` (racemic) [Example 43, 3-(3-fluoro-2-methoxyanilino)-2-{3-[2-(oxetan-2-yl)ethoxy]pyridin-4-yl}-1,5,6,7-tetrahydro-4H-pyrrolo[3,2-c]pyridin-4-one] are 11.5 nM, 262 nM and 3500 nM.
For the compound `COc1c(F)cccc1Nc1c(-c2ccncc2OCC2OCC2(C)C)[nH]c2c1C(=O)NCC2` (racemic) [Example 52, 2-{3-[(3,3-dimethyloxetan-2-yl)methoxy]pyridin-4-yl}-3-(3-fluoro-2-methoxyanilino)-1,5,6,7-tetrahydro-4H-pyrrolo[3,2-c]pyridin-4-one], the IC50 was 38.1 nM in the assay with Ba/F3-EGFR-insSVD (setting [1]), 535 nM in the assay with Ba/F3-EGFR-WT (setting [2]) and > 20000 nM on human Bub1 (setting [3]).
Take `Cc1cccc(Nc2c(-c3ccncc3OCC3OCC3(C)C)[nH]c3c2C(=O)NCC3)c1Cl` (single isomer, unassigned; (-)) [Example 60, (−)-3-(2-chloro-3-methylanilino)-2-{3-[(3,3-dimethyloxetan-2-yl)methoxy]pyridin-4-yl}-1,5,6,7-tetrahydro-4H-pyrrolo[3,2-c]pyridin-4-one]: the IC50 with Ba/F3-EGFR-insSVD (setting [4]) was > 1000 nM; in the assay on Ba/F3-EGFR-WT (setting [5]), 2130 nM; on human Bub1 (setting [3]) it was 18800 nM and > 20000 nM.
For `O=C1NCCc2[nH]c(-c3ccncc3OCC3CCO3)c(Nc3cccc(Cl)c3Cl)c21` (single isomer, unassigned; (-)) [Example 12, (−)-3-(2,3-dichloroanilino)-2-{3-[(oxetan-2-yl)methoxy]pyridin-4-yl}-1,5,6,7-tetrahydro-4H-pyrrolo[3,2-c]pyridin-4-one], the IC50 in the assay on Ba/F3-EGFR-insSVD (setting [4]) is 192 nM; in the assay on Ba/F3-EGFR-WT (setting [5]), 991 nM; at human Bub1 (setting [3]) it was 11300 nM.
As to `O=C1NCCc2[nH]c(-c3ccncc3OCCC3CCO3)c(Nc3cccc(Cl)c3Cl)c21` (single isomer, unassigned) [Example 63, 3-(2,3-dichloroanilino)-2-(3-{2-[oxetan-2-yl]ethoxy}pyridin-4-yl)-1,5,6,7-tetrahydro-4H-pyrrolo[3,2-c]pyridin-4-one], the IC50 was 31.4 nM in the assay with Ba/F3-EGFR-insSVD (setting [1]), 567 nM with Ba/F3-EGFR-WT (setting [2]) and 5510 nM at human Bub1 (setting [3]).
For the compound `COc1c(Br)cccc1Nc1c(-c2ccncc2OCC2CCO2)[nH]c2c1C(=O)NCC2` (single isomer, unassigned) [Example 35, 3-(3-bromo-2-methoxyanilino)-2-{3-[(oxetan-2-yl)methoxy]pyridin-4-yl}-1,5,6,7-tetrahydro-4H-pyrrolo[3,2-c]pyridin-4-one], the results for the IC50 in the assay with Ba/F3-EGFR-insSVD (setting [4]), with Ba/F3-EGFR-WT (setting [5]) and against human Bub1 (setting [6]) were 206 nM, 1360 nM and 4970 nM, respectively.
As to `COc1c(F)cccc1Nc1c(-c2ccncc2OCC2COC2)[nH]c2c1C(=O)NCC2` [Example 18, 3-(3-fluoro-2-methoxyanilino)-2-{3-[(oxetan-3-yl)methoxy]pyridin-4-yl}-1,5,6,7-tetrahydro-4H-pyrrolo[3,2-c]pyridin-4-one], the IC50 in the assay on Ba/F3-EGFR-insSVD (setting [1]) was determined as 80.1 nM; with Ba/F3-EGFR-WT (setting [2]), 819 nM; on human Bub1 (setting [3]), 12100 nM.
For `Cc1c(Cl)cc(F)cc1Nc1c(-c2ccncc2OCC2CCO2)[nH]c2c1C(=O)NCC2` (single isomer, unassigned) [Example 41, 3-(3-chloro-5-fluoro-2-methylanilino)-2-{3-[(oxetan-2-yl)methoxy]pyridin-4-yl}-1,5,6,7-tetrahydro-4H-pyrrolo[3,2-c]pyridin-4-one], the IC50 in the assay on Ba/F3-EGFR-insSVD (setting [4]) was 346 nM; with Ba/F3-EGFR-WT (setting [5]), 1780 nM; against human Bub1 (setting [6]), 6350 nM.
On to `Cc1cccc(Nc2c(-c3ccncc3OCCC3CCO3)[nH]c3c2C(=O)NCC3)c1Cl` (stereo not shown) [Example 62, 3-(2-chloro-3-methylanilino)-2-{3-[2-(oxetan-2-yl)ethoxy]pyridin-4-yl}-1,5,6,7-tetrahydro-4H-pyrrolo[3,2-c]pyridin-4-one], for which the IC50 is 42.1 nM with Ba/F3-EGFR-insSVD (setting [1]), 3700 nM in the assay on Ba/F3-EGFR-WT (setting [2]), > 5710 nM on human Bub1 (setting [6]) and 5250 nM at human Bub1 (setting [3]).
Turning to `COc1c(F)cccc1Nc1c(-c2ccncc2OCCC2CCO2)[nH]c2c1C(=O)NCC2` (single isomer, unassigned) [Example 45, 3-(3-fluoro-2-methoxyanilino)-2-{3-[2-(oxetan-2-yl)ethoxy]pyridin-4-yl}-1,5,6,7-tetrahydro-4H-pyrrolo[3,2-c]pyridin-4-one], the IC50 came out at 46.4 nM with Ba/F3-EGFR-insSVD (setting [4]), 746 nM with Ba/F3-EGFR-WT (setting [5]) and 12700 nM against human Bub1 (setting [6]).
As for `CCc1c(Cl)cccc1Nc1c(-c2ccncc2OCC2CCO2)[nH]c2c1C(=O)NCC2` (stereo not shown) [Example 77, 3-(3-chloro-2-ethylanilino)-2-(3-{[oxetan-2-yl]methoxy}pyridin-4-yl)-1,5,6,7-tetrahydro-4H-pyrrolo[3,2-c]pyridin-4-one], the IC50 in the assay on Ba/F3-EGFR-insSVD (setting [1]) turned out to be 46.7 nM; with Ba/F3-EGFR-WT (setting [2]), 777 nM; on human Bub1 (setting [3]), 1760 nM.
In the same order, the values of `O=C1NCCc2[nH]c(-c3ccncc3OCC3CCO3)c(Nc3cccc(Cl)c3Cl)c21` (racemic) [Example 10, 3-(2,3-dichloroanilino)-2-{3-[(oxetan-2-yl)methoxy]pyridin-4-yl}-1,5,6,7-tetrahydro-4H-pyrrolo[3,2-c]pyridin-4-one] are 65.9 nM, 1040 nM and 13800 nM.
